Values joined by “and” are separate entries in the source; they are usually repeats but may differ in a detail not shown here. Equal entries are not always repeated.
Key:
[1] = test system: Salmonella typhimurium TA 98; assay: Ames test, mutagenicity, TA 98
Procedure: (§1) 2-aminoanthracene (2-AA) and 2-(2-furyl)-3-(5-nitro-2-furyl)-acrylamide (AF-2) standard mutagens were used as positive control. 2-AA was used in the presence of S9 mixture, while AF-2 was used without the S9 mixture. Deionized water (DI) and DMSO were used as negative controls for the samples and mutagens, respectively. The mixture solution was poured onto the minimal histidine agar and then incubated at 37 °C for 48 h. The revertant colonies formed on the agar plate were scored.
(§2) Three plates were investigated per dose in two independent experiments for both mutagenicity and antimutagenicity tests.

[2] = test system: Salmonella typhimurium TA 100; assay: Ames test, mutagenicity, TA 100
Procedure: as §1, §2

[3] = test system: Salmonella typhimurium TA 100; assay: Ames test, anti-mutagenicity, TA 100; type: cell-based
Procedure: The antimutagenicity was indicated based on percentage inhibition which was calculated as in the following equation:Antimutagenicity (%) = [1 − (b/a)] × 100
(§3) • a = revertant colony number induced via standard mutagen (positive control) • b = revertant colony number induced by standard mutagen in the presence of each sample treatment

[4] = test system: Salmonella typhimurium TA 98; assay: Ames test, anti-mutagenicity, TA 98; type: cell-based
Drosophila melanogaster [5] = assay: SMART (wing spot test), anti-mutagenicity; settings: mutagen alone, 1 mM
Procedure: The wing spots were scored as mentioned above. The percentage of anti-mutagenicity of the nanoparticles (% inhibition) was calculated as in the following equation:Antimutagenicity (%) = [(a − b)/a] × 100
• a = number of total spots per wing of positive mutagen control group • b = number of total spots per wing of each experimental group

MRC-5 = assay: Cytotoxic assay (MTT) in MRC-5; type: cell-based, human; settings: MRC-5, MTT
Procedure: (§4) Cell viability (%) = (Absorbance (sample))/(Absorbance (control)) × 100 […]
(§5) Cell proliferation was determined using an MTT assay at indicated time.
(§6) The solution was gently removed, then the crystal was dissolved by dimethyl sulfoxide (DMSO). The cell viability is directly related to the […]
(§7) to a decrease in cell numbers. […]
(§8) the starting point (0 h) (B-E).

hRBCs = assay: Hemolysis assay
Procedure: (§9) Human blood samples of healthy subjects were obtained from Maharaj Hospital, Chiang Mai, Thailand, which were anonymized by the laboratory and kept in a heparinized tube. […] The remaining RBCs were used in a hemolysis assay. […] Consent to participate was not applicable because of anonymous data collection. All methods were carried out following relevant guidelines and regulations.
Human RBCs were collected after the separation of hPBMCs from whole blood. The 5% RBCs suspension then was mixed with several concentrations of the various forms of selenium and incubated at 37 °C for three hours. […] Hemoglobin released by damaged cells can be used as a marker of red blood cell lysis following test agent exposure and can notice as a red-color solution that can be measured for absorbance using spectrophotometry. Triton X-100 was used as a positive control.

3T3-L1 = assay: Cytotoxic assay (MTT) in 3T3-L1; settings: at up to 16 µM
LX-2 = assay: Cytotoxic assay (MTT) in LX-2; type: cell-based, human; settings: LX-2, MTT
Procedure: as §4, §5, §6, §7, §8

hPBMCs = assay: Cytotoxicity on hPBMCs (SRB assay); settings: at up to 16 µM of Se
Procedure: as §9

HEK-293 = assay: Cytotoxic assay (MTT) in HEK-293; type: cell-based, human; settings: HEK-293, MTT
Procedure: as §4, §5, §6, §7, §8

Caco2 = assay: Cytotoxic assay (MTT) in Caco2; type: cell-based, human
Procedure: as §4, §5, §6, §7, §8

[6] = test system: Salmonella typhimurium TA 98; assay: Ames test, anti-mutagenicity, TA 98; type: cell-based; settings: TA 98, +S9, PhIP (0.1 µg/Plate)
Procedure: To determine the antimutagenicity of the samples, 6-phenylimidazo [4,5-b]pyridine (PhIP) and 2-Amino-3-methylimidazo [4,5-f]quinoline (IQ) were used as standard mutagens (positive control) in the test of TA98 and TA100, respectively, in the presence of S9 mixture. The antimutagenicity was indicated based on percentage inhibition which was calculated as in the following equation:Antimutagenicity (%) = [1 − (b/a)] × 100
as §3

Drosophila melanogaster [7] = assay: SMART (wing spot test), mutagenicity; type: in vivo; design: key to Statistical diagnosis: Small Single (m = 2) / Statistical diagnosis: Large Single (m = 5) / Statistical diagnosis: Twin (m = 5) / Statistical diagnosis: Total Spots (m = 2): + = positive; − = negative; i = inconclusive; settings: 20 mM
Procedure: Urethane (20 mM) was used as a mutagen (positive control) and DI was used as a negative control. The larvae were fed on each medium until pupation at 25 °C. Later, the wings of surviving flies were removed for mutant spot analysis. Approximately 40 wings in each group were scored for the presence of mutant spots, including small single spots, large single spots, and twin spots. The results were diagnosed using the estimation of spot frequencies and confidence limits for comparison with the control group, and the statistical significance was calculated as previously described by Frei and Würgler.

[8] = TA 100, +S9, IQ (0.05 µg/Plate), 3.12 µM/plate
[9] = TA 100, +S9, IQ (0.05 µg/Plate), 6.25 µM/plate
[10] = TA 100, +S9, IQ (0.05 µg/Plate), 12.5 µM/plate
[11] = TA 100, −S9, AF-2 (0.01 µg/Plate), 3.12 µM/plate
[12] = TA 100, −S9, AF-2 (0.01 µg/Plate), 6.25 µM/plate
[13] = TA 100, −S9, AF-2 (0.01 µg/Plate), 12.5 µM/plate
[14] = TA 98, −S9, AF-2 (0.1 µg/Plate), 3.12 µM/plate
[15] = TA 98, −S9, AF-2 (0.1 µg/Plate), 6.25 µM/plate
[16] = TA 98, −S9, AF-2 (0.1 µg/Plate), 12.5 µM/plate

Compound: Nc1ccc2cc3ccccc3cc2c1 [2-AA, 2-aminoanthracene]
- Number of Revertant Colonies ([1]; TA 98, +S9, 0.5 µg/plate): 318 ± 24
- Number of Revertant Colonies ([2]; TA 100, +S9, 0.5 µg/plate): 590 ± 38

Compound: NC(=O)C(=Cc1ccc([N+](=O)[O-])o1)c1ccco1 [AF-2, 2-(2-furyl)-3-(5-nitro-2-furyl)-acrylamide]
- Number of Revertant Colonies ([3]; TA 100, −S9, standard mutagen alone, 0.01 µg/Plate): 460 ± 36 (0)
- Number of Revertant Colonies ([1]; TA 98, −S9, 0.1 µg/plate): 299 ± 20
- Number of Revertant Colonies ([2]; TA 100, −S9, 0.1 µg/plate): 500 ± 73
- Number of Revertant Colonies ([4]; TA 98, −S9, standard mutagen alone, 0.1 µg/Plate): 347 ± 20 (0)

Compound: CCOS(C)(=O)=O [EMS, ethyl methanesulfonate]
- Frequency of Mutant Spots Per Individual: Large Single (>2 Cells) (Drosophila melanogaster [5]): 2.850
- Frequency of Mutant Spots Per Individual: Small Single (1–2 Cells) (Drosophila melanogaster [5]): 7.400
- Frequency of Mutant Spots Per Individual: Total Spots (Drosophila melanogaster [5]): 11.300
- Frequency of Mutant Spots Per Individual: Twin Spots (Drosophila melanogaster [5]): 1.050
- Number of Spots: Large Single (>2 Cells) (Drosophila melanogaster [5]): 114
- Number of Spots: Small Single (1–2 Cells) (Drosophila melanogaster [5]): 296
- Number of Spots: Total Spots (Drosophila melanogaster [5]): 452
- Number of Spots: Twin Spots (Drosophila melanogaster [5]): 42
- Statistical diagnosis: Large Single (>2 Cells) (Drosophila melanogaster [5]; vs deionized water): +
- Statistical diagnosis: Small Single (1–2 Cells) (Drosophila melanogaster [5]; vs deionized water): +
- Statistical diagnosis: Total Spots (Drosophila melanogaster [5]; vs deionized water): +
- Statistical diagnosis: Twin Spots (Drosophila melanogaster [5]; vs deionized water): +

Compound: Cn1c(N)nc2c3cccnc3ccc21 [IQ, 2-Amino-3-methylimidazo [4,5-f]quinoline]
- Number of Revertant Colonies ([3]; TA 100, +S9, standard mutagen alone, 0.05 µg/Plate): 490 ± 20 (0)

Compound: O=[Se]([O-])[O-].[Na+].[Na+] [Na2SeO3, sodium selenite]
- effect on cell number (cell proliferation, Supplementary Figure S5) (MRC-5; 48 h vs starting point 0 h): killing effect
- IC50 (MRC-5; selenium concentration): 10.5 µM
- % Hemolysis (hRBCs; Se concentration 4 µM, 37 °C, three hours): 0.01 ± 0.059%
- % Hemolysis (hRBCs; Se concentration 6.25 µM, 37 °C, three hours): 0.14 ± 0.036%
- % Hemolysis (hRBCs; Se concentration 8 µM, 37 °C, three hours): 0.06 ± 0.024%
- % Hemolysis (hRBCs; Se concentration 50 µM, 37 °C, three hours): 0.08 ± 0.074%
- % mutagenic inhibition [3, 8]: 11%
- Number of Revertant Colonies [3, 8]: 435 ± 24
- % mutagenic inhibition [3, 9]: 18%
- Number of Revertant Colonies [3, 9]: 404 ± 20
- % mutagenic inhibition [3, 10]: 21%
- Number of Revertant Colonies [3, 10]: 385 ± 28
- inhibition of mutagen-induced revertant colonies ([3]; TA100, +S9, IQ, 6.25–12.5 µM/plate): 18–21%
- anti-mutagenic activity in the AF-2-induced mutation model ([3]; TA100, −S9): not observed
- % mutagenic inhibition [3, 11]: −17%
- Number of Revertant Colonies [3, 11]: 541 ± 82
- % mutagenic inhibition [3, 12]: −24%
- Number of Revertant Colonies [3, 12]: 570 ± 40
- % mutagenic inhibition [3, 13]: −30%
- Number of Revertant Colonies [3, 13]: 597 ± 58
- Number of Revertant Colonies ([1]; TA 98, +S9, 3.12 µM/plate): 25 ± 5
- Number of Revertant Colonies ([1]; TA 98, +S9, 6.25 µM/plate): 26 ± 4
- Number of Revertant Colonies ([1]; TA 98, +S9, 12.5 µM/plate): 27 ± 5
- Number of Revertant Colonies ([1]; TA 98, −S9, 3.12 µM/plate): 22 ± 2
- Number of Revertant Colonies ([1]; TA 98, −S9, 6.25 µM/plate): 21 ± 1
- Number of Revertant Colonies ([1]; TA 98, −S9, 12.5 µM/plate): 23 ± 3
- mutagenicity in Ames test ([1]; TA98 and TA 100, presence or absence of S9 homogenate): neither pro-mutagen nor mutagen
- Number of Revertant Colonies ([2]; TA 100, +S9, 3.12 µM/plate): 121 ± 8
- Number of Revertant Colonies ([2]; TA 100, +S9, 6.25 µM/plate): 122 ± 11
- Number of Revertant Colonies ([2]; TA 100, +S9, 12.5 µM/plate): 126 ± 7
- Number of Revertant Colonies ([2]; TA 100, −S9, 3.12 µM/plate): 117 ± 7
- Number of Revertant Colonies ([2]; TA 100, −S9, 6.25 µM/plate): 110 ± 4
- Number of Revertant Colonies ([2]; TA 100, −S9, 12.5 µM/plate): 112 ± 7
- toxicity to pre 3T3-L1 (3T3-L1): not toxic
- anti-mutagenic activity in the AF-2-induced mutation model ([4]; TA98, −S9): not observed
- % mutagenic inhibition [4, 14]: 9%
- Number of Revertant Colonies [4, 14]: 315 ± 6
- % mutagenic inhibition [4, 15]: 4%
- Number of Revertant Colonies [4, 15]: 335 ± 24
- % mutagenic inhibition [4, 16]: 5%
- Number of Revertant Colonies [4, 16]: 329 ± 14
- effect on cell number (cell proliferation, Supplementary Figure S5) (LX-2; 48 h vs starting point 0 h): killing effect
- IC50 (LX-2; selenium concentration): 11.2 µM
- cell viability of hPBMCs (hPBMCs): not harmful
- effect on cell number (cell proliferation, Supplementary Figure S5) (HEK-293; 48 h vs starting point 0 h): killing effect
- IC50 (HEK-293; selenium concentration): 9 µM
- effect on cell number (cell proliferation, Supplementary Figure S5) (Caco2; 48 h vs starting point 0 h): killing effect
- IC50 (Caco2; selenium concentration): 4 µM and ~4 µM
- % mutagenic inhibition ([6]; 3.12 µM/plate): 7%
- Number of Revertant Colonies ([6]; 3.12 µM/plate): 341 ± 14
- % mutagenic inhibition ([6]; 6.25 µM/plate): 6%
- Number of Revertant Colonies ([6]; 6.25 µM/plate): 345 ± 9
- % mutagenic inhibition ([6]; 12.5 µM/plate): 10%
- Number of Revertant Colonies ([6]; 12.5 µM/plate): 332 ± 23

Compound: CCOC(N)=O [Urethane, ethyl carbamate]
- Frequency of Mutant Spots Per Individual: Large Single (m = 5) (Drosophila melanogaster [7]; 40 wings): 10.50
- Frequency of Mutant Spots Per Individual: Small Single (m = 2) (Drosophila melanogaster [7]; 40 wings): 24.75
- Frequency of Mutant Spots Per Individual: Total Spots (m = 2) (Drosophila melanogaster [7]; 40 wings): 36.25
- Frequency of Mutant Spots Per Individual: Twin (m = 5) (Drosophila melanogaster [7]; 40 wings): 1.0
- Number of Spots: Large Single (m = 5) (Drosophila melanogaster [7]; 40 wings): 420
- Number of Spots: Small Single (m = 2) (Drosophila melanogaster [7]; 40 wings): 990
- Number of Spots: Total Spots (m = 2) (Drosophila melanogaster [7]; 40 wings): 1450
- Number of Spots: Twin (m = 5) (Drosophila melanogaster [7]; 40 wings): 40
- Statistical diagnosis: Large Single (m = 5) (Drosophila melanogaster [7]; vs DI): +
- Statistical diagnosis: Small Single (m = 2) (Drosophila melanogaster [7]; vs DI): +
- Statistical diagnosis: Total Spots (m = 2) (Drosophila melanogaster [7]; vs DI): +
- Statistical diagnosis: Twin (m = 5) (Drosophila melanogaster [7]; vs DI): +

Compound: Triton X-100
- % Hemolysis (hRBCs; positive control, run beside each Se form): 98 ± 0.052% and 100 ± 0.23%
